# Several values for one entry are separate records, joined by “and”; a condition that tells them apart may be missing. Identical values can stand only once.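 48-hour exposure; five concentrations; linearly interpolated endpoints. At the GI50, growth is halved. TGI is the concentration that stops growth completely.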
# Legend:
# Experiment in all cases: DTP human tumour cell line panel, 48 h
# [1] = test system: SF-295 CNS
# [2] = test system: KM12 colon
# [3] = test system: MOLT-4 leukemia
# [4] = test system: CCRF-CEM leukemia
# [5] = test system: NCI-H226 lung
# [6] = test system: HCT-116 colon
# [7] = test system: 786-0 renal
# [8] = test system: SNB-75 CNS
# [9] = test system: HS 578T breast
# [10] = test system: NCI/ADR-RES ovarian
Structure (SMILES),TGI [1] [µM],TGI [2] [µM],TGI [3] [µM],TGI [4],TGI [5] [µM],TGI [6] [µM],TGI [7] [µM],TGI [8] [µM],TGI [9] [µM],TGI [10] [µM],GI50 [1] [µM],GI50 [2] [µM],GI50 [3] [µM],GI50 [4] [µM],GI50 [5] [µM],GI50 [10] [µM],GI50 [6] [µM],GI50 [7] [µM],GI50 [8] [µM],GI50 [9] [µM]
COC(=O)C1CSC(c2csc(CCN)n2)=N1 (stereo unspecified),> 100,> 100,> 100,> 100 µM,> 100,> 100,> 100,> 100,–,–,–,–,–,–,–,–,–,–,–,–
O=Cc1cccc2ccc3ccccc3c12,50.2,25.4,–,–,74.8,39.4,53.5,43.6,54.7,38.3,–,–,–,–,–,–,–,–,–,–
O=C(/C=C/C12c3ccccc3C(c3ccccc31)C1C(=O)N(c3ccc(Cl)cc3)C(=O)C12)c1ccccn1 (stereo unspecified),2.03,–,> 100,> 100 µM,0.878,0.423,0.398,1.05,–,> 100,0.379,0.345,0.322,0.29,0.258,0.332,0.183,0.194,0.256,–
NC1N=Nc2ccccc21 (stereo unspecified),> 100,> 100,> 100,> 100 µM,> 100,> 100,> 100,> 100,–,–,–,–,–,–,–,–,–,–,–,–
N#CC(C#N)=NNc1ccc2cn[nH]c2c1,> 100,> 100,54.2,55 µM,> 100,44.7,> 100,–,> 100,> 100,–,–,–,–,–,–,–,–,–,–
CC1=NN(C(=O)Cc2ccccc2)C(=O)/C1=C\c1ccc([N+](=O)[O-])cc1,> 100,> 100,> 100,> 100 µM,> 100,> 100,> 100,–,–,–,–,–,–,–,–,–,–,–,–,–
O=C(NC(=Nc1ccccc1)SCSC(=Nc1ccccc1)NC(=O)c1ccco1)c1ccco1,78.4,> 100,> 100,> 100 µM,> 100,> 100,> 100,35.1,–,–,–,–,–,–,–,–,–,–,–,–
Cc1cc(=O)oc2cc(OCCCOc3ccc4c(C)cc(=O)oc4c3)ccc12,> 100,–,> 100,> 100 µM,> 100,> 100,> 100,> 100,–,–,–,–,–,–,–,–,–,–,–,–
O=C(Cc1ccccc1[N+](=O)[O-])C(CO)c1ccccc1[N+](=O)[O-] (stereo unspecified),> 100,> 100,> 100,> 100 µM,> 100,> 100,> 100,> 100,–,–,–,–,–,–,–,–,–,–,–,–
C/C(CCn1[nH]c(=O)ccc1=O)=N\NC(=O)C(N)=O,> 100,> 100,–,–,> 100,> 100,> 100,> 100,–,–,–,–,–,–,–,–,–,–,–,–
O=C(O)CN(c1ccccc1)S(=O)(=O)c1cccc([N+](=O)[O-])c1,> 100,> 100,> 100,> 100 µM,> 100,–,> 100,> 100,–,–,–,–,–,–,–,–,–,–,–,–
c1ccc2c(c1)SC(=C1Sc3ccccc3S1)S2,> 100,–,> 100,> 100 µM,–,–,> 100,73.3,–,–,–,–,–,–,–,–,–,–,–,–
Cc1ccc([Se](=C(C(=O)c2ccccc2)C(=O)c2ccccc2)c2ccc(C)cc2)cc1,66.5,44.1,43.3,–,56.7,> 100,> 100,> 100,72.9,> 100,–,–,–,–,–,–,–,–,–,–
CC(=O)c1ccccc1NC(=O)C(=O)C(C(=O)c1ccc2ccccc2c1)C1OC(=O)c2ccccc21 (stereo unspecified),–,52.2,> 100,40 µM,7.86,29.6,20.9,25.6,–,–,–,–,–,–,–,–,–,–,–,–
COc1ccc(Nc2nc3cc(C(F)(F)F)ccc3nc2-c2ccccc2)cc1OC,53.3,> 100,> 100,> 100 µM,69.7,> 100,> 100,> 100,–,–,–,–,–,–,–,–,–,–,–,–
O=[N+]([O-])c1ccc(/C=C/c2nc3ccc(Cl)cc3[nH]2)cc1,> 100,> 100,> 100,–,> 100,37.6,43.3,> 100,> 100,> 100,39.9,5.6,59.7,–,45.9,15,15.7,18.7,76.9,68.2
O=C1/C(=C/c2ccc([N+](=O)[O-])s2)Oc2cc(Cl)ccc21,> 100,4.56,–,1.48 µM,> 21.8,–,7.35,11.6,5.43,> 100,4.46,0.758,–,0.325,3.83,3.02,–,2.9,2.04,0.519
COc1ccc2c(c1)CC[C@@H]1C2CC[C@]2(C)C(=O)N(CCN(C)C)C(=O)CC12 (stereo partly specified),> 100,> 100,> 100,> 100 µM,> 100,> 100,> 100,> 100,> 100,–,–,–,–,–,–,–,–,–,–,–
CC(C)OP(=S)(NC(=S)c1ccccc1)OC(C)C,> 100,> 100,> 100,> 100 µM,> 100,> 100,> 100,> 100,–,–,–,–,–,–,–,–,–,–,–,–
CC(c1cc(Cl)ccc1O)c1cc(Cl)ccc1O,7.83,10.2,10.3,–,43.5,10.3,36.1,11.9,7.19,9.16,2.3,3.22,3.3,–,12,3.15,3.38,15.7,2.49,2.74
COc1ccc2c(c1)[n+]([O-])c(-c1cccc(Cl)c1)c(N)[n+]2[O-],> 100,> 100,> 100,> 100 µM,> 100,> 100,> 100,–,–,–,–,–,–,–,–,–,–,–,–,–
CC1(C)NC(=O)N(CCCCCCN2C(=O)NC(C)(C)C2=O)C1=O,–,> 100,> 100,> 100 µM,> 100,> 100,> 100,> 100,–,–,–,–,–,–,–,–,–,–,–,–
CCCCCCCCCCCCCC[n+]1ccccc1,2.62,2.25,2.38,1.99 µM,–,–,2.42,2.22,5.13,46.8,0.9,0.855,0.618,0.334,–,8.65,–,1.04,0.523,1.59

Structure (SMILES),TGI [1] [µM],TGI [2] [µM],TGI [3] [µM],TGI [4],TGI [5] [µM],TGI [6] [µM],TGI [7] [µM],TGI [8] [µM],TGI [9] [µM],TGI [10] [µM],GI50 [1] [µM],GI50 [2] [µM],GI50 [3] [µM],GI50 [4] [µM],GI50 [5] [µM],GI50 [10] [µM],GI50 [6] [µM],GI50 [7] [µM],GI50 [8] [µM],GI50 [9] [µM]
O=c1cc(-c2ccccc2)[nH]c2ncccc12,0.269,15.7,> 100,> 100 µM,–,> 54,> 100,–,–,0.414,–,–,–,–,–,–,–,–,–,–
N#CCCN(CCC#N)c1ccc(/C=C(/NC(=O)c2cc([N+](=O)[O-])ccc2Cl)C(=O)NN)cc1,> 100,> 100,> 100,> 100 µM,> 100,> 100,> 100,> 100,–,–,–,–,–,–,–,–,–,–,–,–
[O-]/N=[N+](/[O-])C1CCCCC1=[N+]1CCOCC1 (stereo unspecified),> 100,> 100,> 100,> 100 µM,> 100,> 100,> 100,–,–,–,–,–,–,–,–,–,–,–,–,–
C/C(=N\NC(=S)N1CCN(c2ccccn2)CC1)c1ccccn1,12.4,14.1,2.66,0.878 µM and 0.317 µM,7.33,13.8,13.5,17.6,27.9,–,0.0129,0.0219,–,–,0.236,–,–,0.00656,–,1.28
COc1cc(CC(C)=O)cc(OC)c1,> 100,–,73.2,> 100 µM,> 100,> 100,> 100,> 100,–,> 100,–,–,–,–,–,–,–,–,–,–
OCC1OC2c3ccccc3COC2C1OCc1ccccc1 (stereo unspecified),> 100,> 100,> 100,–,> 100,> 100,> 100,> 100,–,–,–,–,–,–,–,–,–,–,–,–
CN(C)C1CCN(Cc2ccc(NC(=O)c3cncc(C#Cc4cnc(N)c5ncccc45)c3)cc2C(F)(F)F)CC1,17.3,6.88,5.57,6.07 µM,–,18,1.93,11.5,14.8,2.7,8.88,0.236,1.55,1.54,–,1.23,8.28,1.01,5.39,3.84
CC#C[C@]1(O)CCC2[C@@H]3CCC4=CC(=O)CCC4=C3[C@@H](c3ccc(N(C)C)cc3)C[C@@]21C (stereo partly specified),30.1,65.2,–,37.5 µM,–,39.6,37.2,–,33.9,89.3,–,–,–,–,–,–,–,–,–,–
COC(=O)Cc1c([C@@]2(C)CCCC(C)(C)C2)ccc2c1C(=O)OC2,26.1,30.6,18.2,22.2 µM,28.4,22,30.8,28.7,–,–,–,–,–,–,–,–,–,–,–,–
Nc1nc(NCCOCP(=O)(O)O)c([N+](=O)[O-])c(=O)[nH]1,> 100,> 100,> 100,> 100 µM,> 100,> 100,> 100,> 100,–,–,–,–,–,–,–,–,–,–,–,–
CCC12CCCN(Cc3ccccc3)C1c1c(n(C)c3ccccc13)C(CO)C2 (stereo unspecified),64.7,89.4,149,> 257 µM,104,53.6,79.5,–,–,–,–,–,–,–,–,–,–,–,–,–
CN1C(=O)CC2(C)c3cc(O)cc(Br)c3N(C)C12 (stereo unspecified),> 100,> 100,> 100,> 100 µM,> 100,> 100,> 100,> 100,–,–,–,–,–,–,–,–,–,–,–,–
COC(=O)[C@H](CC(C)C)NC(=O)[C@H](Cc1ccccc1)N1CC2C=CC1C2 (stereo partly specified),> 100,> 100,> 100,> 100 µM,> 100,–,> 100,> 100,–,–,–,–,–,–,–,–,–,–,–,–
CC1(C)CC(=O)C=C(/C=C/Sc2c(Cl)c(Cl)nc(Cl)c2Cl)C1,35.6,26.2,> 100,–,29,13.3,15.2,31.5,74.3,25.6,17.7,11.6,4.61,–,12.7,11.3,3.85,3.92,15.9,25.8
COc1cccc(C=O)c1C(=O)c1cc(O)ccc1O,> 100,> 100,27.5,80.2 µM,> 100,39.2,> 100,> 100,–,–,–,–,–,–,–,–,–,–,–,–
COc1cc2c(cc1OC)C(C#N)N(C(=O)c1ccccc1)C=C2OC(=O)c1ccccc1 (stereo unspecified),45.4,> 100,> 100,> 100 µM,51.4,–,34.7,40,–,–,–,–,–,–,–,–,–,–,–,–
O=C(COc1ccccc1Cl)N1N=C(c2ccccc2)CC1(O)c1ccccc1 (stereo unspecified),34.8,41.8,58.8,–,35.9,51.3,31,> 100,–,–,–,–,–,–,–,–,–,–,–,–
O=C1C=C(Nc2ccccc2C(=O)CC(=O)C(=O)Nc2ccc(Cl)cc2)c2ccccc2C1=O,–,54.6,> 38.5,33.1 µM,> 56.6,28.8,62.1,36,–,–,–,–,–,–,–,–,–,–,–,–
Cc1cc(=O)[nH]c(CNC(=O)c2ccc3ccccc3c2)n1,> 100,> 100,> 100,> 100 µM,> 100,> 100,> 100,> 100,–,–,–,–,–,–,–,–,–,–,–,–
CC(C)(C)N/N=C(\C(=O)Nc1cccc(Cl)c1)C1C(=O)Nc2ccccc2S1=O (stereo unspecified),> 100,> 100,> 100,> 100 µM,> 100,–,> 100,> 100,–,–,–,–,–,–,–,–,–,–,–,–
COC(=O)[C@H]1COC(=S)N1C(=O)[C@@H](C)[C@H](O)C(C)C,> 100,> 100,> 100,> 100 µM,> 100,> 100,> 100,> 100,–,–,–,–,–,–,–,–,–,–,–,–
COC(=O)c1cc(NC(=O)c2cc(NC(=O)c3cc([N+](=O)[O-])n(C)c3)cn2C)cn1C,> 100,> 100,–,> 100 µM,> 100,> 100,> 100,–,> 100,> 100,32.8,80.8,–,54,39.9,> 100,31.8,> 100,–,> 100

# From PubChem BioAssay (NCI)
